# Where a SMILES comes first, the peptide text is derived from it. [ ]: non-standard residue; d: D form. The star is where a group is joined. X2 = NC(=O)COCC(=O)NCCCOCCOCCOCCCN*; NH(4-picolyl) = c1cc(CN*)ccn1; PEG4 = NCCOCCOCCOCCOCCC(=O)O; Nle = CCCC[C@H](N)C(=O)O
# Experiment: Pharmacokinetics in rats after intravenous bolus injection (systemic clearance)
# Format: in vivo
# Conditions: rat, plasma, 0.1 mg FB/kg, adult male Sprague-Dawley rats, i.v. bolus, dose 0.10 mg FB/kg, read-out: CL (ml/kg/min) Average
# Method in brief: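 Systemic clearance from noncompartmental analysis as dose per kg over trapezoidal AUC extrapolated to infinity, mean and SD across animals. Plasma (K2EDTA) levels by LC/MS/MS after single IV jugular-vein bolus, 0.1-1.0 mg/kg, in 3-4 cannulated male Sprague-Dawley rats.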
row,SMILES,clearance [mL/kg/min]
1,"CCCC[C@H](NC(=O)[C@H](CCC(=O)O)NC(=O)[C@H](CC(=O)O)NC(=O)[C@H](CO)NC(=O)[C@H](Cc1ccccc1)NC(=O)[C@H](CO)NC(=O)CNC(=O)[C@H](CC(=O)O)NC(=O)CNC(=O)[C@@H](N)Cc1cnc[nH]1)C(=O)N[C@H](Cc1ccccc1)C(=O)N[C@H](C(=O)N[C@H](C(=O)N[C@@H](CC(C)C)C(=O)N[C@@H](CC(=O)O)C(=O)N[C@@H](CC(C)C)C(=O)N[C@@H](CC(C)C)C(=O)N[C@@H](C)C(=O)N[C@@H](C)C(=O)N[C@@H](CCCNC(=N)N)C(=O)N[C@@H](CC(=O)O)C(=O)N[C@@H](Cc1ccccc1)C(=O)N[C@H](C(=O)N[C@@H](CC(N)=O)C(=O)N[C@@H](Cc1c[nH]c2ccccc12)C(=O)N[C@@H](CC(C)C)C(=O)N[C@H](C(=O)N[C@@H](CCC(N)=O)C(=O)N[C@H](C(=O)N[C@@H](CCCCN)C(=O)N[C@H](C(=O)N[C@H](C(=O)N[C@@H](CC(=O)O)C(N)=O)[C@@H](C)O)[C@@H](C)CC)[C@@H](C)O)[C@@H](C)CC)[C@@H](C)CC)[C@@H](C)CC)[C@@H](C)O [Compound 51, [Gly2,Nle10,D-Phe11,Leu16] hGLP-2(1-33)-NH2] (H-HGDGSFSDE[Nle][dF]TILDLLAARDFINWLIQTKITD-NH2)",0.2

# Same assay, conditions: rat, plasma, 0.2 mg FB/kg, adult male Sprague-Dawley rats, i.v. bolus, dose 0.20 mg FB/kg, read-out: CL (ml/kg/min) Average
row,SMILES,clearance [mL/kg/min]
1,"CCCC[C@H](NC(=O)[C@H](CCC(=O)O)NC(=O)[C@H](CC(=O)O)NC(=O)[C@H](CO)NC(=O)[C@H](Cc1ccccc1)NC(=O)[C@H](CO)NC(=O)CNC(=O)[C@H](CC(=O)O)NC(=O)CNC(=O)[C@@H](N)Cc1cnc[nH]1)C(=O)N[C@H](Cc1ccccc1)C(=O)N[C@H](C(=O)N[C@H](C(=O)N[C@@H](CC(C)C)C(=O)N[C@@H](CC(=O)O)C(=O)N[C@@H](CC(C)C)C(=O)N[C@@H](CC(C)C)C(=O)N[C@@H](C)C(=O)N[C@@H](C)C(=O)N[C@@H](CCCNC(=N)N)C(=O)N[C@@H](CC(=O)O)C(=O)N[C@@H](Cc1ccccc1)C(=O)N[C@H](C(=O)N[C@@H](CC(N)=O)C(=O)N[C@@H](Cc1c[nH]c2ccccc12)C(=O)N[C@@H](CC(C)C)C(=O)N[C@H](C(=O)N[C@@H](CCC(N)=O)C(=O)N[C@H](C(=O)N[C@@H](CCCCN)C(=O)N[C@H](C(=O)N[C@H](C(=O)N[C@@H](CC(=O)O)C(N)=O)[C@@H](C)O)[C@@H](C)CC)[C@@H](C)O)[C@@H](C)CC)[C@@H](C)CC)[C@@H](C)CC)[C@@H](C)O [Compound 51, [Gly2,Nle10,D-Phe11,Leu16] hGLP-2(1-33)-NH2] (H-HGDGSFSDE[Nle][dF]TILDLLAARDFINWLIQTKITD-NH2)",0.27
2,"CCCC[C@H](NC(=O)[C@H](CCC(=O)O)NC(=O)[C@H](CC(=O)O)NC(=O)[C@H](CO)NC(=O)[C@H](Cc1ccccc1)NC(=O)[C@H](CO)NC(=O)CNC(=O)[C@H](CC(=O)O)NC(=O)CNC(=O)[C@@H](N)Cc1c[nH]cn1)C(=O)N[C@H](Cc1ccccc1)C(=O)N[C@H](C(=O)N[C@H](C(=O)N[C@@H](CC(C)C)C(=O)N[C@@H](CC(=O)O)C(=O)N[C@@H](CC(C)C)C(=O)N[C@@H](CC(C)C)C(=O)N[C@@H](C)C(=O)N[C@H](C(=O)N[C@@H](CCCNC(=N)N)C(=O)N[C@@H](CC(=O)O)C(=O)N[C@@H](Cc1ccccc1)C(=O)N[C@H](C(=O)N[C@@H](CC(N)=O)C(=O)N[C@@H](Cc1c[nH]c2ccccc12)C(=O)N[C@@H](CC(C)C)C(=O)N[C@H](C(=O)N[C@@H](CCC(N)=O)C(=O)N[C@H](C(=O)N[C@@H](CCCCN)C(N)=O)[C@@H](C)O)[C@@H](C)CC)[C@@H](C)CC)[C@@H](C)O)[C@@H](C)CC)[C@@H](C)O [Compound 52, [Gly2,Nle10,D-Phe11,Leu16,Thr19] hGLP-2(1-30)-NH2] (H-HGDGSFSDE[Nle][dF]TILDLLATRDFINWLIQTK-NH2)",0.49
3,"CCCC[C@H](NC(=O)[C@H](CCC(=O)O)NC(=O)[C@H](CC(=O)O)NC(=O)[C@H](CO)NC(=O)[C@H](Cc1ccccc1)NC(=O)[C@H](CO)NC(=O)CNC(=O)[C@H](CC(=O)O)NC(=O)CNC(=O)[C@@H](N)Cc1cnc[nH]1)C(=O)N[C@H](Cc1ccccc1)C(=O)N[C@H](C(=O)N[C@H](C(=O)N[C@@H](CC(C)C)C(=O)N[C@@H](CC(=O)O)C(=O)N[C@@H](CC(C)C)C(=O)N[C@@H](CC(C)C)C(=O)N[C@@H](C)C(=O)N[C@@H](C)C(=O)N[C@@H](CCCNC(=N)N)C(=O)N[C@@H](CC(=O)O)C(=O)N[C@@H](Cc1ccccc1)C(=O)N[C@H](C(=O)N[C@@H](CC(N)=O)C(=O)N[C@@H](Cc1c[nH]c2ccccc12)C(=O)N[C@@H](CC(C)C)C(=O)N[C@H](C(=O)N[C@@H](CCC(N)=O)C(=O)N[C@H](C(=O)N[C@@H](CCCCN)C(=O)N[C@H](C(=O)N[C@H](C(=O)N[C@@H](CC(=O)O)C(=O)NCC)[C@@H](C)O)[C@@H](C)CC)[C@@H](C)O)[C@@H](C)CC)[C@@H](C)CC)[C@@H](C)CC)[C@@H](C)O [Compound 53, [Gly2,Nle10,D-Phe11,Leu16] hGLP-2(1-33)-NHEt] (H-HGDGSFSDE[Nle][dF]TILDLLAARDFINWLIQTKITD-NHEt)",0.19

# Further lines, results first:
row,clearance [mL/kg/min],SMILES
1,0.27,"CCCC[C@H](NC(=O)[C@H](CCC(=O)O)NC(=O)[C@H](CC(=O)O)NC(=O)[C@H](CO)NC(=O)[C@H](Cc1ccccc1)NC(=O)[C@H](CO)NC(=O)CNC(=O)[C@H](CC(=O)O)NC(=O)CNC(=O)[C@@H](N)Cc1c[nH]cn1)C(=O)N[C@H](Cc1ccccc1)C(=O)N[C@H](C(=O)N[C@H](C(=O)N[C@@H](CC(C)C)C(=O)N[C@@H](CC(=O)O)C(=O)N[C@@H](CC(C)C)C(=O)N[C@@H](CC(C)C)C(=O)N[C@@H](C)C(=O)N[C@@H](C)C(=O)N[C@@H](CCCNC(=N)N)C(=O)N[C@@H](CC(=O)O)C(=O)N[C@@H](Cc1ccccc1)C(=O)N[C@H](C(=O)N[C@@H](CC(N)=O)C(=O)N[C@@H](Cc1c[nH]c2ccccc12)C(=O)N[C@@H](CC(C)C)C(=O)N[C@H](C(=O)N[C@@H](CCC(N)=O)C(=O)N[C@H](C(=O)N[C@@H](CCCCN)C(=O)N[C@H](C(=O)N[C@H](C(=O)N[C@@H](CC(=O)O)C(=O)NCc1ccncc1)[C@@H](C)O)[C@@H](C)CC)[C@@H](C)O)[C@@H](C)CC)[C@@H](C)CC)[C@@H](C)CC)[C@@H](C)O [Compound 54, [Gly2,Nle10,D-Phe11,Leu16] hGLP-2(1-33)-NH-4-Pic] (H-HGDGSFSDE[Nle][dF]TILDLLAARDFINWLIQTKITD-{NH(4-picolyl)})"
2,0.23,"CCCC[C@H](NC(=O)[C@H](CCC(=O)O)NC(=O)[C@H](CC(=O)O)NC(=O)[C@H](CO)NC(=O)[C@H](Cc1ccccc1)NC(=O)[C@H](CO)NC(=O)CNC(=O)[C@H](CC(=O)O)NC(=O)CNC(=O)[C@@H](N)Cc1cnc[nH]1)C(=O)N[C@H](Cc1ccccc1)C(=O)N[C@H](C(=O)N[C@H](C(=O)N[C@@H](CC(C)C)C(=O)N[C@@H](CC(=O)O)C(=O)N[C@@H](CC(C)C)C(=O)N[C@@H](CC(C)C)C(=O)N[C@@H](C)C(=O)N[C@@H](C)C(=O)N[C@@H](CCCNC(=N)N)C(=O)N[C@@H](CC(=O)O)C(=O)N[C@@H](Cc1ccccc1)C(=O)N[C@H](C(=O)N[C@@H](CC(N)=O)C(=O)N[C@@H](Cc1c[nH]c2ccccc12)C(=O)N[C@@H](CC(C)C)C(=O)N[C@H](C(=O)N[C@@H](CCC(N)=O)C(=O)N[C@H](C(=O)N[C@@H](CCCCN)C(=O)N[C@H](C(=O)N[C@H](C(=O)N[C@@H](CC(=O)O)C(=O)NCCOCCOCCOCCOCCC(N)=O)[C@@H](C)O)[C@@H](C)CC)[C@@H](C)O)[C@@H](C)CC)[C@@H](C)CC)[C@@H](C)CC)[C@@H](C)O [Compound 55, [Gly2,Nle10,D-Phe11,Leu16] hGLP-2(1-33)-NH—((CH2)2O)4—(CH2)2—C(O)—NH2] (H-HGDGSFSDE[Nle][dF]TILDLLAARDFINWLIQTKITD[PEG4]-NH2)"
3,0.28,"CCCC[C@H](NC(=O)[C@H](CCC(=O)O)NC(=O)[C@H](CC(=O)O)NC(=O)[C@H](CO)NC(=O)[C@H](Cc1ccccc1)NC(=O)[C@H](CO)NC(=O)CNC(=O)[C@H](CC(=O)O)NC(=O)CNC(=O)[C@@H](N)Cc1c[nH]cn1)C(=O)N[C@H](Cc1ccccc1)C(=O)N[C@H](C(=O)N[C@H](C(=O)N[C@@H](CC(C)C)C(=O)N[C@@H](CC(=O)O)C(=O)N[C@@H](CC(C)C)C(=O)N[C@@H](CC(C)C)C(=O)N[C@@H](C)C(=O)N[C@@H](C)C(=O)N[C@@H](CCCNC(=N)N)C(=O)N[C@@H](CC(=O)O)C(=O)N[C@@H](Cc1ccccc1)C(=O)N[C@H](C(=O)N[C@@H](CC(N)=O)C(=O)N[C@@H](Cc1c[nH]c2ccccc12)C(=O)N[C@@H](CC(C)C)C(=O)N[C@H](C(=O)N[C@@H](CCC(N)=O)C(=O)N[C@H](C(=O)N[C@@H](CCCCN)C(=O)N[C@H](C(=O)N[C@H](C(=O)N[C@@H](CC(=O)O)C(=O)NCCCOCCOCCOCCCNC(=O)COCC(N)=O)[C@@H](C)O)[C@@H](C)CC)[C@@H](C)O)[C@@H](C)CC)[C@@H](C)CC)[C@@H](C)CC)[C@@H](C)O [Compound 56, [Gly2,Nle10,D-Phe11,Leu16] hGLP-2(1-33)-NH—CH2—((CH2)2O)3—(CH2)3—NHC(O)—CH2—O—CH2—C(O)—NH2] (H-HGDGSFSDE[Nle][dF]TILDLLAARDFINWLIQTKITD-X2)"

# — patent US8580918B2, “Peptidic GLP-2 agonists” (Ferring B.V., priority 2009, dated 2013)
